Test results reported in patent publication US8642067B2, “Methods and compositions for intraocular administration to treat ocular conditions” (Allergen, Inc., priority 2007, dated 2014).

Assays:
[1] = test system: macula edema patient; assay: Treatment of macular edema with intravitreal TKI composition (ETDRS visual acuity chart); assay type: in vivo, human; settings: twelve months after first injection; 1 mg intravitreal every 4 months; high viscosity hyaluronate solution such as Example 13 formulation
Method: An obese patient with symptoms of diabetes presents with vision loss due to macula edema with central retinal vein occlusion and/or branch retinal vein occlusion. They receive intravitreal injection of 1 mg of a high viscosity TKI (polymeric hyaluronate based) solution containing COMPOUND F, such as the Example 13 formulation. Equivalent injections are made every 4 months.

[2] = in vivo; settings: female, albino, rabbit
Method: Vitreous humor samples (n=4 eyes per timepoint) were collected at 0.5, 1, 2, 4, 8, and 12 hr postdose. The TKI concentration in the vitreous humor was determined using a liquid chromatography tandem mass spectrometry method (LC-MS/MS).

Compound	improved best corrected visual acuity from baseline (ETDRS chart) [1]	AUC(0-t) [2] [ng·h/mL]	C0 [2] [ng/mL]	Vd [2] [L]	clearance [2] [mL/min]	half-life [2] [h]
Cc1cc(C(=O)Nc2cccc(C#Cc3cncc(C(=O)N=S(C)(=O)c4ccc(CCC(=O)O)cc4)c3)c2)n(C)n1 (stereo not drawn) [COMPOUND F]	fifteen					
Nc1ccc2c(c1)/C(=C1\C(=O)Nc3ccc(Cl)cc31)OC2 [COMPOUND A, 3-(6-Amino-3H-isobenzofuran-1-ylidene)-5-chloro-1,3-dihydro-indol-2-one]		778	566	0.000705	0.00433	2.59
